# In patent US4767742A, “Hirudin-PA and its derivatives, process for manufacturing these and the use of these substances” (Plantorgan-Werk Heinrich G. F. Christensen, KG, priority 1984, dated 1988):
# Experiments:
# thrombin [1] = target: T1, thrombin (Homo sapiens, UniProt P00734); experiment: dissociation constant of the complex with thrombin; assay type: binding; details: read-out: dissociations constant Ki of the complex with thrombin
# [2] = test system: other proteinases of the blood clotting cascade; experiment: specificity against proteinases of the blood clotting cascade; assay type: biochemical
# thrombin [3] = target: T1, thrombin; experiment: specific antithrombin activity; assay type: biochemical
Ki (thrombin [1]),Substance,inhibition of other proteinases of the blood clotting cascade [2],specific antithrombin activity (thrombin [3])
~0.03 nM,hirudin,inhibits no other proteinases of the blood clotting cascade,–
0.04 nM,hirudin-PA,–,680-720 IU/mg
